According to patent US20210015881A1 (priority 2016, published 2021):

What was measured:
[1] = system: aconitic arrhythmia; conditions: for effect on baseline heart rate and contraction (intervals R-R, PQ, QT): i.v. at doses that provide antiarrhythmic effect in 50% of rats; for antiarrhythmic activity and range of antiarrhythmic action, comparison: active doses 5-10 minutes prior to i.v. aconitine
Description: The study was conducted in anesthetized white outbred rats. The objective of the experiment was to study the efficiency of intravenous administration of the studied substances and known antiarrhythmic agents in the model of aconitic arrhythmia in anesthetized rats.
The studied substances and medicinal products for comparison were administered in active doses 5-10 minutes prior to intravenous administration of aconitine.

[2] = system: cardiac arrhythmia caused by barium chloride; assay: Cardiac arrhythmia caused by barium chloride; assay type: in vivo, rats
Description: The study was conducted in 60 white outbred rats. […] Out of 15 control animals, which received barium chloride at a dose of 20 mg/kg, […] of the rats died.
Rhythm disturbances were mostly of a ventricular type, in the form of ventricular bigeminy, trigeminy, group extrasystoles, transient ventricular standstill, flutter and ventricular fibrillation. In addition, various types of conduction disorders and increased ST segment above contours were observed.
Intravenous administration of the studied substances at doses of 0.05-0.1 mg/kg 10 min prior to the injection of barium chloride prevented the development of arrhythmias in 60-90% of rats. Antiarrhythmic effect of the studied substances combines with antitoxic effect against lethality from barium chloride.

[3] = system: corneal reflex; assay: Terminal (topical) anesthesia of the rabbit eye, method of Rainier-Valet; assay type: in vivo, rabbits
Description: The local anesthetic effect of the studied substances was investigated in 10 rabbits. The effect on terminal anesthesia was investigated by the method of Rainier-Valet, by identifying the corneal reflex to mechanical irritation every 5-10 min after instillation of 2 drops of 0.1%-0.25%-0.5% solutions of the studied substances.
(§1) The time of anesthesia onset, its depth and duration were determined. Activity of the studied substances at topical anesthesia was compared to dicaine; at infiltration anesthesia-to novocaine.

[4] = system: threshold of pain irritation; assay: Infiltration anesthesia in rabbits, method of Bullbring-Vida; assay type: in vivo; conditions: 0.5% solution
Description: The ability of the medicinal product to cause infiltration anesthesia was studied in rabbits by the method of Bullbring-Vida (pain method).
as §1

SMILES: CCOC(=O)Nc1ccc2c(c1)N(C(=O)CCN1CCOCC1)c1ccccc1S2 [Etmozin]
- effect on baseline heart rate and contraction (intervals R-R, PQ, QT) [1]: inhibition of the baseline heart rate and contraction
- antiarrhythmic activity and range of antiarrhythmic action, comparison ([1]; i.v.): most efficient among the reference antiarrhythmic agents

SMILES: CCN(CC)CC(=O)Nc1c(C)cccc1C [Lidocaine]
- duration of effect, comparison ([1]; i.v., active doses prior to aconitine): shortest effect

SMILES: CCN(CC)CCNC(=O)c1ccc(N)cc1 [Procainamide]
- antiarrhythmic and antitoxic activity, comparison ([2]; barium chloride model of ventricular type arrhythmia): weakest antiarrhythmic and antitoxic activity

SMILES: C=C[C@H]1C[N@@]2CC[C@H]1C[C@@H]2[C@@H](O)c1ccnc2ccc(OC)cc12 [Quinidine]
- effect on baseline heart rate and contraction (intervals R-R, PQ, QT) [1]: inhibition of the baseline heart rate and contraction
- antiarrhythmic and antitoxic effect compared with substances 1-9 at 0.05 mg/kg and 0.1 mg/kg ([2]; 5 mg/kg and 10 mg/kg): approximately similar

SMILES: COc1ccc(CCN(C)CCCC(C#N)(c2ccc(OC)c(OC)c2)C(C)C)cc1OC (centres unmarked) [Verapamil]
- antiarrhythmic activity and range of antiarrhythmic action, comparison ([1]; i.v.): least effective

SMILES: CCCCNc1ccc(C(=O)OCCN(C)C)cc1 [dicaine]
- average duration of terminal anesthesia of the rabbit eye ([3]; 0.1%): 37 min
- average duration of terminal anesthesia of the rabbit eye ([3]; 0.5%): 52 min
- onset of terminal anesthesia of the rabbit eye ([3]; concentrations of 0.1% and 0.5%): 1 to 2 min

SMILES: CCN(CC)CCOC(=O)c1ccc(N)cc1 [novocaine]
- duration of local anesthetic effect [4]: about 90 min
